From BindingDB's records for doi:10.1007/s002109900141 (Novartis Pharma, 1999)
Where “and” joins values, the source holds several entries; their conditions need not be identical. Identical values can stand only once. *1 amine or outer side, *2 acyl side, *3 side chain or, on linkers, in order; H or OH if unused. Where a SMILES comes first, the peptide text is derived from it. Bridges are numbered along the chain shown (N, C = ends). [ ]: non-standard residue; d: D form. The star is where a group is joined. d1Nal = N[C@H](Cc1cccc2ccccc12)C(=O)O; Asu = N[C@@H](CCCCCC(=O)O)C(=O)O; X1 = O=C(C(N[*:1])S[*:3])[*:2]; Ahp = NCCCCCCC(=O)O; Bn = c1ccc(C*)cc1; Mpa = O=C(O)CCS

Key:
[1] = molecular target: Somatostatin receptor type 4 (Homo sapiens, UniProt P31391)
[2] = molecular target: Somatostatin receptor type 1 (Homo sapiens, UniProt P30872)
[3] = molecular target: Somatostatin receptor type 2 (Homo sapiens, UniProt P30874)
[4] = molecular target: Somatostatin receptor type 3 (Homo sapiens, UniProt P32745)
[5] = molecular target: Somatostatin receptor type 5 (Homo sapiens, UniProt P35346)
Sequence of Somatostatin receptor type 5 (P35346 whole entry): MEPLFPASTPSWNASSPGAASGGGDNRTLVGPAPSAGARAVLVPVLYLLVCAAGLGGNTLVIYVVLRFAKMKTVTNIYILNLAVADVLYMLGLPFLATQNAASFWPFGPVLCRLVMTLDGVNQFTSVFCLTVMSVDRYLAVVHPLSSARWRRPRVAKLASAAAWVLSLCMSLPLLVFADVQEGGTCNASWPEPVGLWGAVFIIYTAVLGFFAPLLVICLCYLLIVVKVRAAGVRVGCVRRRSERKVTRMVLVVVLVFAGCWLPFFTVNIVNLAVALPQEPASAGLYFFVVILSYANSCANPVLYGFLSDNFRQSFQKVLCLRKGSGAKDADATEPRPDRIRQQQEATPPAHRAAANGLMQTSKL

Sequence of Somatostatin receptor type 2 (P30874 whole entry): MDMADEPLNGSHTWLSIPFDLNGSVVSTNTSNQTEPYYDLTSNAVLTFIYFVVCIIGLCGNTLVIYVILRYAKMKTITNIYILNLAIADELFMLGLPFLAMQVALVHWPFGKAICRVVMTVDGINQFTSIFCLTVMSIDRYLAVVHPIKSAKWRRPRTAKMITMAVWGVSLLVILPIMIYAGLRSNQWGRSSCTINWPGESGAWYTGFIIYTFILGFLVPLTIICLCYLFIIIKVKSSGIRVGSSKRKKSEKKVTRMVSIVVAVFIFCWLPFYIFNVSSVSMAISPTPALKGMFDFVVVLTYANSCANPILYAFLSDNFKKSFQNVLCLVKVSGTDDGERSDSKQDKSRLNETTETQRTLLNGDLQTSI
Sequence of Somatostatin receptor type 3 (P32745 whole entry): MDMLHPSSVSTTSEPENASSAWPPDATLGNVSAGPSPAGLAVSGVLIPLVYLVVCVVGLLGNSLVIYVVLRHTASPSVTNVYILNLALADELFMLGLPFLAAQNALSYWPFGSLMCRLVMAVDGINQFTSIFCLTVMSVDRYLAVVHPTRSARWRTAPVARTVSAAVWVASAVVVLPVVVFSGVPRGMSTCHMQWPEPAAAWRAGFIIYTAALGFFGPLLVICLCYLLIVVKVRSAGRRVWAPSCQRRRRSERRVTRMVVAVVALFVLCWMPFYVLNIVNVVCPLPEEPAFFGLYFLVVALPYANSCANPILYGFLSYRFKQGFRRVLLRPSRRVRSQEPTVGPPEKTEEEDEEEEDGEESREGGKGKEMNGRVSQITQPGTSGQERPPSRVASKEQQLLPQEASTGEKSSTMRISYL
Sequence of Somatostatin receptor type 1 (P30872 whole entry): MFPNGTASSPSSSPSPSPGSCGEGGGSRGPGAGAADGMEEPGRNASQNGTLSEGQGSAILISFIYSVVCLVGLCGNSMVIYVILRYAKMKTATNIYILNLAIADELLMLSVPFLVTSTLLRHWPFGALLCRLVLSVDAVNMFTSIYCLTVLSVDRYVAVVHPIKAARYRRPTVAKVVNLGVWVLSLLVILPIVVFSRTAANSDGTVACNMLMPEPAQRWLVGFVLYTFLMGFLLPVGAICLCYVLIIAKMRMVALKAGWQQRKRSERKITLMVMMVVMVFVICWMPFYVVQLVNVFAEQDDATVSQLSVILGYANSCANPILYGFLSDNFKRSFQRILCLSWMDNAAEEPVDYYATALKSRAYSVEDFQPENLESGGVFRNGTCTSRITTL
Sequence of Somatostatin receptor type 4 (P31391 whole entry): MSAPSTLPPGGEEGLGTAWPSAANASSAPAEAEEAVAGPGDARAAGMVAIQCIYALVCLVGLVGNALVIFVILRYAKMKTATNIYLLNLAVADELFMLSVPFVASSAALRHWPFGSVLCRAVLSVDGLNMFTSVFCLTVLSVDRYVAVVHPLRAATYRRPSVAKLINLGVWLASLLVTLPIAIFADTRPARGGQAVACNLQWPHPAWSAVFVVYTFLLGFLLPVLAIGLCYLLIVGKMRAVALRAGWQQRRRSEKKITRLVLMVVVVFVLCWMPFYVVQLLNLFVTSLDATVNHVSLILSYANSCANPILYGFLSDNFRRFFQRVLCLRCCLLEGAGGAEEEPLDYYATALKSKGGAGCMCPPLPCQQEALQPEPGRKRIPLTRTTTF

Row | Structure (SMILES) | Ki [1] | Ki [2] | Ki [3] | Ki [4] | Ki [5]
1 | C[C@@H](O)[C@@H]1NC(=O)[C@H](CCCCN)NC(=O)[C@H](Cc2c[nH]c3ccccc23)NC(=O)[C@H](Cc2ccccc2)NC(=O)[C@H](Cc2ccccc2)NC(=O)[C@H](CC(N)=O)NC(=O)[C@H](CCCCN)NC(=O)[C@@H](NC(=O)[C@@H]2CCCN2)CSSC[C@@H](C(=O)N[C@@H](CCCCN)C(=O)O)NC(=O)[C@H](CO)NC(=O)[C@H](CO)NC(=O)[C@H](Cc2ccc(O)cc2)NC1=O [CST14-Tyr10] (H-PCKNFFWKTYSSCK-OH; disulfide 2-13) | 5.01 nM and 3.63 nM and 6.76 nM | 4.78 nM and 2.75 nM and 0.91 nM | 1.17 nM and 1.69 nM and 1.23 nM and 1 nM | 0.95 nM and 1.99 nM and 1.25 nM | –
2 | C[C@@H](O)[C@@H]1NC(=O)[C@H](CCCCN)NC(=O)[C@@H](Cc2c[nH]c3ccccc23)NC(=O)[C@H](Cc2ccccc2)NC(=O)[C@@H]2CCCN2C(=O)[C@H](Cc2ccccc2)NC1=O (cyclo(PF[dW]KTF)) | 2290 nM | 2190 nM | – | 107 nM | –
3 | CC(C)[C@@H]1NC(=O)[C@H](CCCCN)NC(=O)[C@@H](Cc2c[nH]c3ccccc23)NC(=O)[C@H](Cc2ccc(O)cc2)NC(=O)CCSSC(C(=O)N[C@@H](Cc2ccccc2)C(N)=O)NC1=O (stereo partly specified) [CAS_117580-24-2] ([Mpa]Y[dW]KV[X1]F-NH2; disulfide 1-6) | 2950 nM | 6760 nM | – | 22.9 nM | –
4 | C[C@@H](O)[C@@H]1NC(=O)[C@H](CCCCN)NC(=O)[C@@H](Cc2c[nH]c3ccccc23)NC(=O)[C@H](Cc2ccc(O)cc2)NC(=O)[C@@H](NC(=O)[C@H](N)Cc2ccccc2)CSSC[C@@H](C(=O)N[C@H](CO)[C@@H](C)O)NC1=O [10-(4-Amino-butyl)-19-(2-amino-3-phenyl-propionylamino)-16-(4-hydroxy-benzyl)-7-(1-hydroxy-ethyl)-13-(1H-indol-3-ylmethyl)-6,9,12,15,18-pentaoxo-1,2-dithia-5,8,11,14,17-pentaaza-cycloicosane-4-carboxylic acid (2-hydroxy-1-hydroxymethyl-propyl)-amide] | 1290 nM and 513 nM and 676 nM | 2040 nM and 2690 nM and 1510 nM | – | – | –
5 | CC(C)[C@@H]1NC(=O)[C@H](CCCCN)NC(=O)[C@@H](Cc2c[nH]c3ccccc23)NC(=O)[C@H](Cc2ccc(O)cc2)NC(=O)[C@@H](NC(=O)[C@H](N)Cc2ccccc2)CSSC[C@@H](C(=O)N[C@@H](Cc2c[nH]c3ccccc23)C(N)=O)NC1=O [CAS_71306] (H-[dF]CY[dW]KVCW-NH2; disulfide 2-7) | 107 nM | 224 nM | – | 15.1 nM | –
6 | C[C@@H](O)[C@H](NC(=O)[C@H](Cc1ccccc1)NC(=O)[C@@H](NC(=O)[C@H](CCCCN)NC(=O)[C@@H](Cc1c[nH]c2ccccc12)NC(=O)[C@H](Cc1ccccc1)NC(=O)[C@H](Cc1ccccc1)NC(=O)[C@H](N)Cc1ccccc1)[C@@H](C)O)C(N)=O [CAS_133073-82-2] (H-[dF]FF[dW]KTFT-NH2) | 7.41 nM | 6.76 nM | – | 0.19 nM | –
7 | C[C@@H](O)[C@@H]1NC(=O)[C@H](Cc2ccc(O)cc2)NC(=O)[C@H]([C@@H](C)O)NC(=O)[C@H](CCCCN)NC(=O)[C@H](Cc2c[nH]c3ccccc23)NC(=O)[C@H](Cc2ccccc2)NC(=O)[C@H](Cc2ccccc2)NC(=O)[C@H](CC(N)=O)NC(=O)[C@H](CCCCN)NC(=O)CCCCC[C@@H](C(=O)O)NC(=O)[C@H](CO)NC1=O [CGP-23996] (KNFFWKTYTS[Asu]-OH; lactam N-11) | 2.39 nM | 3.54 nM | – | 0.7 nM | –
8 | CC(C)[C@@H]1NC(=O)[C@H](CCCCN)NC(=O)[C@@H](Cc2c[nH]c3ccccc23)NC(=O)[C@H](Cc2ccc(O)cc2)NC(=O)[C@@H](NC(=O)[C@H](N)Cc2ccc3ccccc3c2)CSSC[C@@H](C(=O)N[C@H](C(N)=O)[C@@H](C)O)NC1=O [3-(2-Naphtyl)-D-Ala-L-Cys(1)-L-Tyr-D-Trp-L-Lys-L-Val-L-Cys(1)-L-Thr-NH2] | – | 178 nM | 0.37 nM | 11.7 nM | –
9 | CC(C)[C@H](NC(=O)[C@H](CCCCN)NC(=O)[C@@H](Cc1c[nH]c2ccccc12)NC(=O)[C@H](Cc1ccc(O)cc1)NC(=O)[C@H](Cc1ccccc1)NC(=O)[C@H](N)Cc1ccccc1)C(=O)N[C@@H](Cc1ccccc1)C(=O)N[C@H](Cc1cccc2ccccc12)C(N)=O [BIM 23056] (H-[dF]FY[dW]KVF[d1Nal]-NH2) | 91.2 nM | 275 nM | – | 63.1 nM | –

Continued, values first:

Row | Ki [1] | Ki [2] | Ki [3] | Ki [4] | Ki [5] | Structure (SMILES)
10 | 0.54 nM and 0.57 nM | 0.33 nM and 0.24 nM | 0.46 nM and 1.41 nM | 0.13 nM | 0.06 nM and 0.28 nM and 0.42 nM and 0.14 nM | CSCC[C@H](NC(=O)[C@H](CCCN=C(N)N)NC(=O)[C@@H](N)CC(=O)O)C(=O)N1CCC[C@H]1C(=O)N[C@H]1CSSC[C@@H](C(=O)N[C@@H](CCCCN)C(=O)O)NC(=O)[C@H](CO)NC(=O)[C@H](CO)NC(=O)[C@H](Cc2ccccc2)NC(=O)[C@H]([C@@H](C)O)NC(=O)[C@H](CCCCN)NC(=O)[C@H](Cc2c[nH]c3ccccc23)NC(=O)[C@H](Cc2ccccc2)NC(=O)[C@H](Cc2ccccc2)NC(=O)[C@H](CC(N)=O)NC(=O)[C@H](CCCN=C(N)N)NC1=O [Cortistatin]
11 | 83.2 nM | 832 nM | – | 5.12 nM | – | C[C@@H](O)[C@@H]1NC(=O)[C@H](CCCCN)NC(=O)[C@@H](Cc2c[nH]c3ccccc23)NC(=O)[C@H](Cc2c[nH]c3ccccc23)NC(=O)[C@H](Cc2ccccc2)NC(=O)CCCCCCNC(=O)[C@H](Cc2ccccc2)NC1=O [L-362855] (cyclo([Ahp]FW[dW]KTF))
12 | 513 nM | 331 nM | – | 132 nM | – | C[C@@H](OCc1ccccc1)[C@@H]1NC(=O)[C@H](CCCCN)NC(=O)[C@@H](Cc2c[nH]c3ccccc23)NC(=O)[C@H](Cc2ccccc2)NC(=O)CCCCCCNC1=O [c[Aha-Phe-D-Trp-Lys-Thr(Bzl)]] (cyclo([Ahp]F[dW]KT(Bn)))
13 | – | – | – | 20.9 nM | – | CC(C)[C@@H]1NC(=O)[C@H](CCCCN)NC(=O)[C@@H](Cc2c[nH]c3ccccc23)NC(=O)[C@H](Cc2ccc(O)cc2)NC(=O)[C@H](C)N(C)C(=O)[C@H](Cc2ccccc2)NC1=O [seglitide]
14 | 2.69 nM | 0.85 nM | – | 0.53 nM | – | C[C@@H](O)[C@@H]1NC(=O)[C@H](CCCCN)NC(=O)[C@H](Cc2c[nH]c3ccccc23)NC(=O)[C@H](Cc2ccccc2)NC(=O)[C@H](Cc2ccccc2)NC(=O)[C@H](CC(N)=O)NC(=O)[C@H](CCCCN)NC(=O)[C@@H](NC(=O)[C@@H]2CCCN2)CSSC[C@@H](C(=O)N[C@@H](CCCCN)C(=O)O)NC(=O)[C@H](CO)NC(=O)[C@H](CO)NC(=O)[C@H](Cc2ccccc2)NC1=O [Cortistatin(1-14)] (H-PCKNFFWKTFSSCK-OH; disulfide 2-13)
15 | 0.42 nM and 0.69 nM and 0.74 nM | 0.74 nM and 0.6 nM and 0.52 nM | – | 0.08 nM and 0.14 nM and 0.54 nM | 7.58 nM | CC(C)C[C@H](NC(=O)[C@H](C)NC(=O)[C@@H]1CCCN1C(=O)[C@H](CC(N)=O)NC(=O)[C@H](CO)NC(=O)[C@H](CC(N)=O)NC(=O)[C@H](C)NC(=O)[C@@H](N)CO)C(=O)N[C@@H](C)C(=O)N1CCC[C@H]1C(=O)N[C@@H](CCCN=C(N)N)C(=O)N[C@@H](CCC(=O)O)C(=O)N[C@@H](CCCN=C(N)N)C(=O)N[C@@H](CCCCN)C(=O)N[C@@H](C)C(=O)NCC(=O)N[C@H]1CSSC[C@@H](C(=O)O)NC(=O)[C@H](CO)NC(=O)[C@H]([C@@H](C)O)NC(=O)[C@H](Cc2ccc(O)cc2)NC(=O)[C@H]([C@@H](C)O)NC(=O)[C@H](CCCCN)NC(=O)[C@@H](Cc2c[nH]c3ccccc23)NC(=O)[C@H](Cc2ccccc2)NC(=O)[C@H](Cc2ccccc2)NC(=O)[C@H](CC(N)=O)NC(=O)[C@H](CCCCN)NC1=O [LTT-SRIF28] (H-SANSNPALAPRERKAGCKNFF[dW]KTYTSC-OH; disulfide 17-28)
